Test results published in patent US20260325469A1, “COMPOSITION FOR ANIMALS” (priority 2023, published 2026).

Columns and labels:
[1] = Solubility in concentrated stock solution; format: physicochemical; conditions: concentrated stock solution / acidic solutions
Text: A concentrated stock solution is required to facilitate administration through drinking water.

[2] = tested on: E. coli cells producing F4 fimbriae; test: Example 4.1: E. coli agglutination test; format: cell-based; conditions: concentrations identical to Example 3.1; OD450 1.5 cells, 5 μL + 5 μL on glass plate
Experimental: The effect of three different compositions on E. coli agglutination were tested: (i) lactic acid and acetic acid, (ii) tannic acid, (iii) lactic acid, acetic acid and tannic acid.
A recombinant E. coli strain constitutively expressing F4 fimbriae was washed three times with 0.9% sodium chloride, and cells corresponding to an optical density (OD450) of 1.5 were resuspended in 50 μL of 0.9% sodium chloride.
5 μL of the cell suspension was mixed with 5 μL of either (i) lactic acid and acetic acid, (ii) tannic acid or (iii) lactic acid, acetic acid and tannic acid on the surface of a glass plate.
The concentration of each of these components were identical to those delivered to the pigs in Example 3.1.

[3] = Example 1.3: feeding experiments, TLA composition via drinking water, feed free from medical zinc, weight gain and diarrhoea; format: in vivo, piglets (day-one weaned); conditions: comparison of AWG ratio with Example 1.2, light diarrhoea environment
Experimental: In Example 1.3, a composition comprising [COMPOUND LEFT OUT] lactic acid, [COMPOUND LEFT OUT] acetic acid and tannic acid was administered to piglets in combination with a feed free from medical zinc.
A batch solution was prepared using [COMPOUND LEFT OUT] lactic acid (80% lactic acid, Frederiksen, DK); acetic acid (5%, Organic Vinegar, Netto, DK) and tannic acid (Sigma) corresponding to a content of 10% Tannic acid, 69% lactic acid and 1.4% acetic acid. This composition is hereafter named TLA stock (tannic acid, lactic acid and acetic acid stock).
Two independent one-week feeding experiments were carried out with day-one weaned piglets (Example 1.3.1 and 1.3.2).
The concentrated TLA stock feed additive was prepared and used to mix with the standard setup for drinking water used by the weaned pigs at the farm. The dry feed is as described above.
The feed received by both the test and control groups was free from medical zinc. In each experiment, two test groups were administered the TLA composition in drinking water while two control groups received standard tap water. The total weight of all piglets in each group was measured at the initiation of the experiment (Day 0, “Start total weight”) and after one (Day 7) and two weeks (Day 14) as indicated (“End total weight”). […]
Following one-week administration, the total weight gain of each group was monitored. […]

Q: With O=C(OC[C@H]1O[C@@H](OC(=O)c2cc(O)c(O)c(OC(=O)c3cc(O)c(O)c(O)c3)c2)[C@H](OC(=O)c2cc(O)c(O)c(OC(=O)c3cc(O)c(O)c(O)c3)c2)[C@@H](OC(=O)c2cc(O)c(O)c(OC(=O)c3cc(O)c(O)c(O)c3)c2)[C@@H]1OC(=O)c1cc(O)c(O)c(OC(=O)c2cc(O)c(O)c(O)c2)c1)c1cc(O)c(O)c(OC(=O)c2cc(O)c(O)c(O)c2)c1 [tannic acid, 1,2,3,4,6-penta-O-{3,4-dihydroxy-5-[(3,4,5-trihydroxybenzoyl)oxy]benzoyl}-D-glucopyranose] as the compound, how does the Solubility [1] read?
A: high solubility in acidic solutions

Q: And the E. coli agglutination [2]?
A: does not show any significant aggregation of the cells

Q: And the “Contribution of tannic acid to weight increase” value [3]?
A: additional effect of tannic acid in the increase in weight

Q: With albumin-tannate [reference compound] as the compound, how does the Solubility [1] read?
A: problems with solubility, resulting in non-homogeneous solutions comprising a precipitate
